Literature values, collected in patent publication US20030175883A1, “DNA encoding a mammalian LPA receptor and uses thereof” (priority 1997, published 2003).

Tests used:
[1] = target: LPA binding sites in membranes from rat brain; conditions: Thomson et al., 1994
[2] = test system: LPA binding sites in membranes from 3T3 cells; conditions: Thomson et al., 1994

## 1-acyl-glycerol-3-phosphate [LPA]
[1]
  Kd: low nanomolar range
[2]
  Kd: low nanomolar range
